From patent US10682366B2, “Method for enhancing immunity using ginsenoside F1 as an active ingredient” (INTELLIGENT SYNTHETIC BIOLOGY CENTER, priority 2016, dated 2020)

How the values were obtained:
[1] = tested on: natural killer cells co-cultured with K562 cell or 721.221 cell; experiment: Cell-killing activity of natural killer cells (cytolysis of europium-labeled target cells); type: cell-based, human; conditions: pretreated NK cells; NK:target ratio 5:1, 10:1, 20:1, 40:1; K562 or 721.221; compared to DMSO-treated group
Experimental: In order to examine whether ginsenoside F1 increases cell-killing activity of natural killer cells, cytolysis of target cells was measured.
(§1) In detail, peripheral blood mononuclear cells (PBMCs) separated from the blood and purified natural killer cells were pretreated with ginsenoside F1 or Rg3, and then co-cultured with K562 cell or 721.221 cell which is an europium-labeled target cells. The natural killer cell and the target cell were mixed at a ratio of 5:1, 10:1, 20:1, and 40:1, followed by culture. Meanwhile, intensity of fluorescence emitted from the target cell is proportional to cell-killing activity of natural killer cell. Therefore, a culture medium was separated by centrifugation, and then fluorescence emitted by cell lysis of the target cell was measured by using a microplate reader.

[2] = tested on: primary natural killer cells; experiment: Cell-killing activity of primary natural killer cells (cytolysis of target cells); type: cell-based, human; conditions: for cytolysis of target cells: compared to DMSO-treated group
From the text: as §1
Blood (50 ml) of a healthy donor was collected in a vacutainer cell preparation tube (BD Biosciences) containing sodium heparin. Thereafter, the blood was percoll-gradient centrifuged to recover a buffy coat which is a white thin layer consisted of platelets and white blood cells. Peripheral blood mononuclear cells obtained by washing this buffy coat with PBS were separated by using a human NK cell negative selection kit (Miltenyl Biotech). Part of the separated natural killer cells and a FACS buffer were mixed, and then purity of natural killer cells (CD3^−/CD16^+) and the number and ratio of CD56^dim/CD16^+, CD56^bright/CD16^−, and CD56^bright/CD16^+ were measured by using a FACS machine and fluorochrome-conjugated anti-CD3, anti-CD56, and […] antibodies. Natural killer cells with purity of 95% or more were used in experiments.
The primary natural killer cells separated by the method of Example 3-1 were used to examine whether ginsenoside F1 increases cell-killing activity of primary natural killer cells, in the same manner as in Example 2.

[3] = tested on: peripheral blood mononuclear cells (PBMCs) and natural killer cells; experiment: Degranulation activity of innate immune cells (CD107a expression by FACS); type: cell-based, human; conditions: cells pretreated with ginsenoside, co-cultured with K562 or 721.221 target cell; compared to DMSO (vehicle)-treated group
Experimental: Effect of ginsenoside F1 on degranulation activity of innate immune cells was measured by fluorescence activated cell sorter (FACS).
In detail, peripheral blood mononuclear cells (PBMCs) separated from the blood and purified natural killer cells were pretreated with ginsenoside, and then co-cultured with K562 cell or 721.221 cell which is a target cell of the above cells, respectively. Thereafter, the surfaces of the peripheral blood mononuclear cells and the natural killer cells were stained with fluorochrome-conjugated anti-CD3, anti-CD56, and anti-CD107a antibodies. Meanwhile, degranulation activity of peripheral blood mononuclear cells or natural killer cells is proportional to CD107a expression on cell surface, as shown in FIG. 1. Therefore, CD107a expression levels of the peripheral blood mononuclear cells and the natural killer cells were measured by a FACS machine.

[4] = tested on: primary natural killer cells; experiment: Calcium flux assay by confocal live cell imaging; type: cell-based, human; conditions: activated with NKG2D antibody and 2B4 antibody; compared to ginsenoside Rg1
Experimental: To investigate a natural killer cell-based immune enhancement mechanism of ginsenoside F1 calcium flux assay of individual cells was performed by live cell imaging using confocal microscopy.
In detail, primary natural killer cells were purified (>97%) by the method of Example 3-1, and then treated with ginsenoside F1 or Rg1. For 30 seconds, a basal calcium level was measured, and then natural killer cells were activated using a combination of NKG2D antibody and 2B4 antibody, followed by calcium flux assay by confocal live cell imaging.

[5] = tested on: natural killer cell-sensitive RMA-S (MHC class I-) cells; experiment: In vivo natural killer cell-based selective reduction of RMA-S (RMA-S/RMA target cell system); conditions: mice pretreated at 25 mg/kg; for removability (selective reduction rate of RMA-S): RMA-S/RMA mixture intraperitoneal, 8 hours later, FACS
Experimental: To evaluate effectiveness of in vivo cell-killing activity of ginsenoside F1, natural killer cell-sensitive RMA-S (MHC class I^−) and natural killer cell-resistant RMA (MHC class I^+) target cell systems were used.
In detail, mice were pretreated with ginsenoside F1 at a dose of 25 mg/kg. A mixture of RMA-S/RMA cells, each cell labeled with different fluorescence intensity, was administered into the mice via intraperitoneal injection. 8 hours later, a selective reduction rate of RMA-S by natural killer cells was analyzed by FACS.

[6] = tested on: primary natural killer cells; experiment: Analysis of cell-killing factors (perforin, granzyme B) by quantitative RT-PCR; type: cell-based, human; conditions: 12 hours after treatment
Experimental: To investigate a cell-killing activation mechanism of natural killer cells by ginsenoside F1, primary natural killer cells purified by the method of Example 3-1 were treated with ginsenoside F1 or Rg1. 12 hours later, total RNA was isolated, and then expressions of perforin and granzyme B which are representative cell-killing factors of natural killer cells were analyzed by quantitative RT-PCR.
In detail, total RNA was isolated from natural killer cells using a TRIzol reagent, and cDNA was synthesized using primers of unknown sequences, which were manufactured by Toyobo, and reverse transcriptase. Thereafter, quantitative RT-PCR was performed using primers of the following Table 1 and SYBR PCR Master Mix (Toyobo).
PCR conditions are the same as in the following Table 2.

Row | Structure (SMILES) | cytolysis of target cells [1] | cytolysis of target cells [2] | CD107a expression [3] | calcium flux of natural killer cells [4] | cytolysis of target cells compared to the ginsenoside Rg3 and Rg1-treated group [2] | RMA-S reduction effect relative to non-treated group ([5]; 8 hours) [times] | removability (selective reduction rate of RMA-S) [5] | expression level of granzyme B compared to ginsenoside Rg1-treated group [6] | expression level of perforin compared to ginsenoside Rg1-treated group [6] | expression level of granzyme B ([6]; compared to non-treated group) | expression level of perforin ([6]; compared to non-treated group)
1 | CC(C)=CCC[C@](C)(O)[C@H]1CC[C@]2(C)[C@@H]1[C@H](O)C[C@@H]1[C@@]3(C)CC[C@H](O[C@@H]4O[C@H](CO)[C@@H](O)[C@H](O)[C@H]4O[C@@H]4O[C@H](CO)[C@@H](O)[C@H](O)[C@H]4O)C(C)(C)[C@@H]3CC[C@]12C [ginsenoside Rg3, reference compound] | high cytolysis of target cells | high cytolysis of target cells | increased |  |  |  |  |  |  |  | 
2 | CC(C)=CCC[C@](C)(O[C@@H]1O[C@H](CO)[C@@H](O)[C@H](O)[C@H]1O)[C@H]1CC[C@]2(C)[C@@H]1[C@H](O)C[C@@H]1[C@@]3(C)CC[C@H](O)C(C)(C)[C@@H]3[C@@H](O)C[C@]12C [ginsenoside F1] | high cytolysis of target cells | high cytolysis of target cells | highest CD107a expression | more effectively promotes calcium flux | remarkably excellent cytolysis | 2 | ≥ 70% | high expression level of granzyme B | high expression level of perforin | about 1.5 times | about 2 times
3 | CC(C)=CCC[C@](C)(O[C@@H]1O[C@H](CO)[C@@H](O)[C@H](O)[C@H]1O)[C@H]1CC[C@]2(C)[C@@H]1[C@H](O)C[C@@H]1[C@@]3(C)CC[C@H](O)C(C)(C)[C@@H]3[C@@H](O[C@@H]3O[C@H](CO)[C@@H](O)[C@H](O)[C@H]3O)C[C@]12C [ginsenoside Rg1, reference compound] |  | high cytolysis of target cells |  |  |  |  | about 52% |  |  |  | 
